{
  "source": "patent US9802899B2",
  "about": "“Heterocyclic compounds as pesticides” (BAYER CROPSCIENCE AG, priority 2012, dated 2017)",
  "data": [
    {"assay": "Determination of the log P values by HPLC (formic acid method)", "assay_type": "physicochemical", "details": "reversed-phase HPLC column (C 18), reversed-phase column (C 18), acidic range (pH 3.4), 55° C.", "procedure": "(§1) 1) Description of Method for Determination of the Log P Values (Formic Acid Method)\n(§2) Eluents for determination in the acidic range (pH 3.4):\n(§3) Eluent A: acetonitrile+1 ml of formic acid/liter. Eluent B: water+0.9 ml of formic acid/liter.\n(§4) The lambda max values were determined in the maxima of the chromatographic signals using the UV spectra from 200 nm to 400 nm.", "values": [
      {"smiles": "O=C(Nc1nn(-c2ccccc2Cl)cc1F)c1ccccc1Cl", "note": "[Compound I-1-27, 2-Chloro-N-[1-(2-chlorophenyl)-4-fluoro-1H-pyrazol-3-yl]benzamide]", "chromatographic logP": 2.7},
      {"smiles": "Cc1ccc(-n2ccc(N)n2)c(Cl)c1", "note": "[1-(2-Chloro-4-methylphenyl)-1H-pyrazole-3-amine]", "chromatographic logP": 1.85},
      {"smiles": "Nc1cnn(-c2ncc(C(F)(F)F)cc2Cl)n1", "note": "[2-[3-Chloro-5-(trifluoromethyl)pyridin-2-yl]-2H-1,2,3-triazole-4-amine]", "chromatographic logP": 1.74},
      {"smiles": "CCCc1ccc(C#N)c(-n2ccc(NC(=O)c3ccccc3C(F)(F)F)n2)n1", "note": "[Compound I-1-573, N-[1-(3-Cyano-6-propylpyridin-2-yl)-1H-pyrazol-3-yl]-2-(trifluoromethyl)benzamide]", "chromatographic logP": 3.8},
      {"smiles": "Nc1cnn(-c2ncc(F)cc2F)n1", "note": "[Ex.45-V, 2-(3,5-Difluoropyridin-2-yl)-2H-1,2,3-triazole-4-amine]", "chromatographic logP": 0.65},
      {"smiles": "Nc1ccn(-c2ncnc(F)c2F)n1", "note": "[1-(5,6-Difluoropyrimidin-4-yl)-1H-pyrazole-3-amine]", "chromatographic logP": 0.86}
    ]},
    {"assay": "Determination of the log P values by HPLC (formic acid method)", "assay_type": "physicochemical", "details": "reversed-phase column (C 18), acidic range (pH 3.4), 55° C.", "procedure": "as §1, §2, §3, §4", "values": [
      {"smiles": "Cn1cc([N+](=O)[O-])c(C(=O)Nc2ccn(-c3c(F)cccc3F)n2)n1", "note": "[Compound I-1-241]", "log P": 1.90},
      {"smiles": "O=C(Nc1ccn(-c2ncccc2F)n1)c1ccsc1I", "note": "[Compound I-1-581]", "log P": 2.30},
      {"smiles": "O=C(Nc1ccn(-c2c(F)cccc2F)n1)c1ccccc1F", "note": "[Compound I-1-278]", "log P": 2.60},
      {"smiles": "Cc1nn(C)c(C(=O)Nc2ccn(-c3ncc(F)cc3F)n2)c1[N+](=O)[O-]", "note": "[Compound I-1-447]", "log P": 2.03},
      {"smiles": "O=C(Nc1ccn(-c2c(F)cccc2F)n1)c1ccc(F)cc1C(F)(F)F", "note": "[Compound I-1-322]", "log P": 2.80},
      {"smiles": "O=C(Nc1ccn(-c2cccc(F)c2F)n1)c1ccccc1C(F)(F)F", "note": "[Compound I-1-62]", "log P": 3.07},
      {"smiles": "CC(C)Cn1ncc(I)c1C(=O)Nc1ccn(-c2ncc(F)cc2F)n1", "note": "[Compound I-1-539]", "log P": 3.28},
      {"smiles": "CCc1cc(NC(=O)c2ccccc2Cl)nn1-c1ccc(F)cc1F", "note": "[Compound I-1-213]", "log P": 3.99},
      {"smiles": "CS(=O)(=O)c1ccccc1C(=O)Nc1ccn(-c2ccccc2Cl)n1", "note": "[Compound I-1-341]", "log P": 2.17},
      {"smiles": "CCc1cc(NC(=O)c2ccccc2I)nn1-c1ccc(F)cc1F", "note": "[Compound I-1-215]", "log P": 4.15},
      {"smiles": "O=C(Nc1ccn(-c2ncc(F)cc2Cl)n1)c1c(F)cccc1F", "note": "[Compound I-1-286]", "log P": 2.33},
      {"smiles": "Cn1nc(C(F)(F)F)c(Br)c1C(=O)Nc1ccn(-c2ncc(F)cc2F)n1", "note": "[Compound I-1-522]", "log P": 3.19},
      {"smiles": "O=C(Nc1ccn(-c2cncc(F)n2)n1)c1cccnc1C(F)(F)F", "note": "[Compound I-1-402]", "log P": 2.76},
      {"smiles": "COc1ccc(Cl)c(C(=O)Nc2ccn(-c3ncc(F)cc3F)n2)c1", "note": "[Compound I-1-483]", "log P": 2.51},
      {"smiles": "Cc1nn(C)c(F)c1C(=O)Nc1ccn(-c2c(F)cccc2F)n1", "note": "[Compound I-1-110]", "log P": 1.98},
      {"smiles": "Cc1cn(-c2ccccc2Cl)nc1NC(=O)c1ccccc1I", "note": "[Compound I-1-365]", "log P": 2.99},
      {"smiles": "O=C(Nc1ccn(-c2ccccc2Br)n1)c1ncccc1C(F)(F)F", "note": "[Compound I-1-54]", "log P": 2.99},
      {"smiles": "Cc1cn(-c2ccccc2Cl)nc1NC(=O)c1ccccc1C(F)(F)F", "note": "[Compound I-1-345]", "log P": 3.01},
      {"smiles": "O=C(Nc1ccn(-c2ncc(F)cc2F)n1)c1ccccc1Cl", "note": "[Compound I-1-143]", "log P": 2.32},
      {"smiles": "O=C(Nc1cnn(-c2ncc(F)cc2F)n1)c1cccnc1Br", "note": "[Compound I-2-69]", "log P": 1.71},
      {"smiles": "O=C(Nc1ccn(-c2ncc(F)cc2F)n1)c1sccc1Cl", "note": "[Compound I-1-503]", "log P": 2.61},
      {"smiles": "O=C(Nc1ccn(-c2ncc(C(F)(F)F)cc2Cl)n1)c1ccccc1Cl", "note": "[Compound I-1-561]", "log P": 3.30},
      {"smiles": "Cc1ccc(C#N)c(-n2ccc(NC(=O)c3ccccc3C(F)(F)F)n2)n1", "note": "[Compound I-1-572]", "log P": 2.92},
      {"smiles": "CN(C(=O)c1ccccc1C(F)(F)F)c1ccn(-c2ncc(F)cc2F)n1", "note": "[Compound I-1-467]", "log P": 2.96},
      {"smiles": "O=C(Nc1ccn(-c2ccccc2Cl)n1)c1ccccc1C(F)F", "note": "[Compound I-1-13]", "log P": 3.03},
      {"smiles": "O=C(Nc1ccn(-c2ncc(F)cc2F)n1)c1cccnc1CC(F)(F)F", "note": "[Compound I-1-457]", "log P": 2.13},
      {"smiles": "CCCn1ncc(I)c1C(=O)Nc1ccn(-c2ncc(F)cc2F)n1", "note": "[Compound I-1-541]", "log P": 2.93},
      {"smiles": "O=C(Nc1ccn(-c2ncc(F)cc2F)n1)c1ccccc1OC(F)(F)F", "note": "[Compound I-1-463]", "log P": 2.77},
      {"smiles": "O=C(Nc1cnn(-c2c(F)cccc2F)n1)c1cnccc1C(F)(F)F", "note": "[Compound I-2-83]", "log P": 2.36},
      {"smiles": "O=C(Nc1ccn(-c2c(Cl)cccc2Cl)n1)c1ccccc1C(F)(F)F", "note": "[Compound I-1-120]", "log P": 3.05},
      {"smiles": "O=C(c1cccnc1Cl)N(C(=O)c1cccnc1Cl)c1nn(-c2ccccc2Br)nc1Cl", "note": "[Compound I-2-23]", "log P": 3.64},
      {"smiles": "CC(C)n1nc([N+](=O)[O-])c(Cl)c1C(=O)Nc1ccn(-c2ncc(F)cc2F)n1", "note": "[Compound I-1-528]", "log P": 3.11},
      {"smiles": "O=C(Nc1ccn(-c2ccccc2Cl)n1)c1ncccc1Cl", "note": "[Compound I-1-40]", "log P": 2.79},
      {"smiles": "Cc1nc(C(F)(F)F)c(C(=O)Nc2ccn(-c3ncc(F)cc3F)n2)s1", "note": "[Compound I-1-497]", "log P": 2.35},
      {"smiles": "Cn1nc(C(F)(F)F)c(C(=O)Nc2ccn(-c3ncc(F)cc3F)n2)c1C(F)(F)F", "note": "[Compound I-1-451]", "log P": 2.79},
      {"smiles": "O=C(Nc1ccn(-c2c(F)cccc2F)n1)c1ccccc1CC(F)(F)F", "note": "[Compound I-1-610]", "log P": 3.00},
      {"smiles": "O=C(Nc1ccn(-c2ncnc(F)c2F)n1)c1c(F)cccc1F", "note": "[Compound I-1-171]", "log P": 2.29},
      {"smiles": "Cc1occc1C(=O)Nc1ccn(-c2ccccc2Cl)n1", "note": "[Compound I-1-370]", "log P": 2.71},
      {"smiles": "Cc1ccsc1C(=O)Nc1ccn(-c2ccccc2Cl)n1", "note": "[Compound I-1-46]", "log P": 2.96},
      {"smiles": "O=C(Nc1ccn(-c2nc(F)c(F)cc2F)n1)c1ccccc1I", "note": "[Compound I-1-165]", "log P": 3.04},
      {"smiles": "O=C(Nc1ccn(-c2c(F)cccc2F)n1)c1c(Cl)cccc1C(F)(F)F", "note": "[Compound I-1-614]", "log P": 2.86},
      {"smiles": "O=C(Nc1ccn(-c2cnc(Cl)cn2)n1)c1ccccc1Cl", "note": "[Compound I-1-389]", "log P": 2.82},
      {"smiles": "Cc1noc(C(F)F)c1C(=O)Nc1ccn(-c2ncc(F)cc2F)n1", "note": "[Compound I-1-157]", "log P": 2.33},
      {"smiles": "O=C(Nc1ccn(-c2c(F)cccc2F)n1)c1ccccc1Cl", "note": "[Compound I-1-81]", "log P": 2.55},
      {"smiles": "O=C(NC1=NN(c2c(F)cccc2F)CC1)c1ccccc1Cl", "note": "[Compound I-4-1]", "log P": 2.75},
      {"smiles": "CCCN(C(=O)c1ccccc1C(F)(F)F)c1ccn(-c2c(F)cccc2F)n1", "note": "[Compound I-1-261]", "log P": 3.64},
      {"smiles": "Cc1cn(-c2ccccc2Cl)nc1NC(=O)c1ccccc1Cl", "note": "[Compound I-1-360]", "log P": 2.80},
      {"smiles": "N#Cc1c(F)cccc1-n1ccc(NC(=O)c2ccccc2Br)n1", "note": "[Compound I-1-620]", "log P": 2.61},
      {"smiles": "Cc1oncc1C(=O)Nc1ccn(-c2ncc(F)cc2F)n1", "note": "[Compound I-1-547]", "log P": 1.37},
      {"smiles": "Cc1cc(NC(=O)c2ccccc2C(F)(F)F)nn1-c1ccccc1Cl", "note": "[Compound I-1-347]", "log P": 2.58},
      {"smiles": "O=C(Nc1ccn(-c2c(F)cccc2F)n1)c1c(F)cccc1I", "note": "[Compound I-1-277]", "log P": 2.74},
      {"smiles": "CS(=O)(=O)c1ccccc1-n1ccc(NC(=O)c2cccnc2C(F)(F)F)n1", "note": "[Compound I-1-180]", "log P": 2.00},
      {"smiles": "CCCc1nn(C)c(C(=O)Nc2ccn(-c3c(F)cccc3F)n2)c1Cl", "note": "[Compound I-1-313]", "log P": 3.68},
      {"smiles": "CC(=O)c1ccccc1C(=O)Nc1ccn(-c2ncc(F)cc2F)n1", "note": "[Compound I-1-481]", "log P": 2.22},
      {"smiles": "O=C(Nc1nn(-c2ccccc2Cl)cc1I)c1ccccc1I", "note": "[Compound I-1-367]", "log P": 3.18},
      {"smiles": "CCOc1cccc(Cl)c1-n1ccc(NC(=O)c2ccccc2Br)n1", "note": "[Compound I-1-398]", "log P": 3.03},
      {"smiles": "O=C(Nc1ccn(-c2c(F)cccc2F)n1)c1cccnc1F", "note": "[Compound I-1-279]", "log P": 2.00},
      {"smiles": "O=C(Nc1cnn(-c2ccccc2Cl)n1)c1cccnc1Cl", "note": "[Compound I-2-5]", "log P": 2.20},
      {"smiles": "C#CCN(C(=O)c1ccccc1Cl)c1ccn(-c2ccccc2Cl)n1", "note": "[Compound I-1-23]", "log P": 3.25},
      {"smiles": "O=C(Nc1ccn(-c2c(F)cccc2F)n1)c1ncccc1Cl", "note": "[Compound I-1-92]", "log P": 2.40},
      {"smiles": "O=C(Nc1cnn(-c2ncc(Cl)cc2Cl)n1)c1ccccc1I", "note": "[Compound I-2-65]", "log P": 3.04},
      {"smiles": "Cn1ccc([N+](=O)[O-])c1C(=O)Nc1ccn(-c2c(F)cccc2F)n1", "note": "[Compound I-1-239]", "log P": 2.50},
      {"smiles": "Cc1ccsc1C(=O)Nc1ccn(-c2ncc(F)cc2F)n1", "note": "[Compound I-1-510]", "log P": 2.38},
      {"smiles": "CC(=O)NC1=NN(c2c(F)cccc2F)CC1", "note": "[N-[1-(2,6-Difluorophenyl)-4,5-dihydro-1H-pyrazol-3-yl]acetamide]", "chromatographic logP": 1.46},
      {"smiles": "O=C(Nc1ccn(-c2ncc(Cl)cc2Cl)n1)c1c(F)cccc1F", "note": "[Compound I-1-429]", "log P": 2.77},
      {"smiles": "Nc1ccn(-c2c(F)cccc2F)n1", "note": "[1-(2,6-Difluorophenyl)-1H-pyrazole-3-amine]", "chromatographic logP": 1.13},
      {"smiles": "Cn1nc(C(F)F)c(C(=O)Nc2ccn(-c3ccccc3Cl)n2)c1F", "note": "[Compound I-1-49]", "log P": 2.59},
      {"smiles": "O=C(Nc1ccn(-c2ncc(F)cc2F)n1)c1cnccc1C(F)(F)F", "note": "[Compound I-1-515]", "log P": 2.00},
      {"smiles": "CC1=C(C(=O)Nc2ccn(-c3ncc(F)cc3F)n2)SCCO1", "note": "[Compound I-1-498]", "log P": 2.17},
      {"smiles": "CCn1nc(C)c(Cl)c1C(=O)Nc1ccn(-c2c(F)cccc2F)n1", "note": "[Compound I-1-309]", "log P": 3.15},
      {"smiles": "O=C(Nc1ccn(-c2ncc(F)cc2F)n1)c1ncccc1C(F)(F)F", "note": "[Compound I-1-502]", "log P": 2.38},
      {"smiles": "O=C(Nc1ccn(-c2ncc(F)cc2F)n1)c1cccnc1C(F)(F)F", "note": "[Compound I-1-151]", "log P": 2.02}
    ]}
  ]
}
